# Reference: patent US7148020B2, “Triple polypeptide complexes” (Arexis AB, priority 2001, dated 2006)
# Ends that are not written are not given here.
# Legend:
# [1] = system: monoclonal anti-CII antibody 122.9; experiment: ELISA, coated polypeptide complexes capture anti-CII monoclonal antibody; format: binding; settings: monoclonal antibody 122.9, Rat; coated wells
# Description: (§1) Triple helical polypeptide complexes [(Gly-Pro-Hyp)5-CII(358-366Hyp-369)-(Gly-Pro-Hyp)2]3LAhx, [(Gly-Pro-Hyp)5-CII(259-273Hyp-274)-(Gly-Pro-Hyp)2]3LAhx, [(Gly-Pro-Hyp)5-CII(259-273Hyp-274)-CII(359-366Hyp)-(Gly-Pro-Hyp)2]3LAhx, [(Gly-Pro-Hyp)5-CII(494-504Hyp)-(Gly-Pro-Hyp)2]3LAhx, and [(Gly-Pro-Hyp)5-CII(551-552Hyp-564)-(Gly-Pro-Hyp)2]3LAhx were used in an ELISA to detect anti-CII-antibodies. Specifically, Immulon2 HB (Dynex/Technologies Inc., USA) plates were coated with [(Gly-Pro-Hyp)5-CII(358-366Hyp-369)-(Gly-Pro-Hyp)2]3LAhx, [(Gly-Pro-Hyp)5-CII(259-273Hyp-274)-(Gly-Pro-Hyp)2]3LAhx, [(Gly-Pro-Hyp)5-CII(259-273Hyp-274)-CII(359-366Hyp)-(Gly-Pro-Hyp)2]3LAhx, [(Gly-Pro-Hyp)5-CII(494-504Hyp)-(Gly-Pro-Hyp)2]3LAhx, and [(Gly-Pro-Hyp)5-CII(551-552Hyp-564)-(Gly-Pro-Hyp)2]3LAhx in a volume of 50 μL/well and at a concentration of 5 μg/mL. Wells coated with native rat CII (rCII; 10 μg/mL) were used as a positive control, while negative controls included wells coated with native rat type I collagen (rCI; 10 μg/mL) and wells coated with phosphate-buffered saline (PBS; pH 7.4).
# (§2) After coating, the plates were incubated for at least one hour in a humid chamber at 4° C. After incubation, the plates were washed three times with PBS using an automatic microtiter plate-washing device (Skan Washer 300, Skatron instruments) and incubated with 50 μL/well of bovine serum albumin (BSA; Sigma, St. Louis, Mo.; 10 mg/mL in PBS) for two hours at 20° C. The wells were washed five times with PBS using ELISA washing equipment (Skatron, Norway) and incubated with a monoclonal anti-CII antibody (50 μL/well in titrated concentrations) for two hours at 20° C. After this two hour incubation, the plates were washed with PBS-Tween and incubated with a secondary enzyme-labeled antibody for two hours at 20° C. For detection of mouse antibodies, peroxidase labeled goat anti-mouse IgG (H+L) (Jackson ImmunoResearch Laboratories, Inc., USA) were used. For detection of rat antibodies, peroxidase labeled goat anti-rat IgG (H+L) (Jackson ImmunoResearch Laboratories, Inc. USA) were used.
# (§3) After washing the wells with PBS, the assay was developed using the ABTS system (Boehringer-Mannheim, Mannheim, Germany), and the absorbance levels determined at 405 nm (ELISA reader, Titertek). Titers and concentrations of the monoclonal antibodies were calculated using limiting dilution (ELISA software: HyperELISA 3.0).
# [2] = system: monoclonal anti-CII antibody 125.5; experiment: as above; format: binding; settings: monoclonal antibody 125.5, Rat; coated wells
# Description: as §1, §2, §3
# [3] = system: monoclonal anti-CII antibody 126.30; experiment: as above; format: binding; settings: monoclonal antibody 126.30, Rat; coated wells
# Description: as §1, §2, §3
# [4] = system: monoclonal anti-CII antibody 126.35; experiment: as above; format: binding; settings: monoclonal antibody 126.35, Rat; coated wells
# Description: as §1, §2, §3
# [5] = system: monoclonal anti-CII antibody 145.322; experiment: as above; format: binding; settings: monoclonal antibody 145.322, Rat; coated wells
# Description: as §1, §2, §3
# [6] = system: monoclonal anti-CII antibody 146.50; experiment: as above; format: binding; settings: monoclonal antibody 146.50, Rat; coated wells
# Description: as §1, §2, §3
# [7] = system: monoclonal anti-CII antibody EB2; experiment: as above; format: binding; settings: monoclonal antibody EB2, Mouse; coated wells
# Description: as §1, §2, §3
# [8] = system: monoclonal anti-CII antibody EB63; experiment: as above; format: binding; settings: monoclonal antibody EB63, Mouse; coated wells
# Description: as §1, §2, §3
# [9] = system: monoclonal anti-CII antibody M2 139; experiment: as above; format: binding; settings: monoclonal antibody M2 139, Mouse; coated wells
# Description: as §1, §2, §3
# [10] = system: monoclonal anti-CII antibody M2 76; experiment: as above; format: binding; settings: monoclonal antibody M2 76, Mouse; coated wells
# Description: as §1, §2, §3
# [11] = system: monoclonal anti-CII antibody M2 84; experiment: as above; format: binding; settings: monoclonal antibody M2 84, Mouse; coated wells
# Description: as §1, §2, §3
# [12] = system: monoclonal anti-CII antibody M2 87; experiment: as above; format: binding; settings: monoclonal antibody M2 87, Mouse; coated wells
# Description: as §1, §2, §3
# [13] = system: monoclonal anti-CII antibody M2 88; experiment: as above; format: binding; settings: monoclonal antibody M2 88, Mouse; coated wells
# Description: as §1, §2, §3
# [14] = system: HCQ.4 T cell hybridoma cells; experiment: T cell hybridoma stimulation with Langerhans cells, IL-2 by CTLL assay; format: cell-based, mice; settings: 10 μg/mL, Langerhans cells as antigen presenting cells, 24 hours (FIG. 3)
# Description: Langerhans cells (dendritic cells) were prepared from ear skin of B10Q×DBA/1 mice and purified with selection on N418 marker. Once purified, Langerhans cells were mixed with HCQ.4 T cell hybridoma cells (1×10^5 cell/well), and the mixture incubated with media containing 10 μg/mL of [(Gly-Pro-Hyp)5-CII(259-274)-(Gly-Pro-Hyp)2]3LAhx (a linked polypeptide), CII(259-270) (an unlinked polypeptide), or native rat CII for 24 hours. After the 24-hour incubation, 0.5 μCi ^3H-thymidine/well (Radiochemical Centre, Amersham,UK) was added, and the cells incubated for an additional 18 hours. After this incubation, the supernatants were assayed for IL-2 content using a CTLL assay. Results were presented as means of duplicates.
# HCQ.10 hybridoma = experiment: Detection of transgenic CII from skin grafts by T cell hybridoma, CTLL assay; format: cell-based, mice; settings: HCQ.10, specific for glycosylated CII(256-270)
# Description: (§4) T cell hybridomas HCQ.4 and HCQ.10, specific for CII(256-270) without posttranslational modification and with glucose on hydroxylysin at position K264 respectively, were used to detect transgenic […] prepared from TSC or recipients grafts at the end of arthritis experiments as described earlier (Michaelsson et al., J. Exp. Med., 180:745–749 (1994) and Corthay et al., Eur. J. Immunol., 28:2580–2590 (1998)). Briefly, syngeneic spleen cells were incubated with titrated amount of antigen at 5×10^5/mL together with the hybridoma cells at 5×10^4/mL. The interleukin-2 production was detected after 24 hours by transferring 100 μL of the supernatant to new plates. Plates were snap-frozen to avoid any contamination of living cells before addition of 10^4 CTLL/well. CTLL were incubated for 24 hours before thymidine-labeling and harvesting 15–18 hours later.
# HCQ.4 hybridoma = experiment: as above; format: cell-based, mice; settings: HCQ.4, specific for non-glycosylated CII(256-270)
# Description: as §4
# [15] = system: C3H.Q mice, arthritis induced with rat CII; experiment: Vaccination of adult mice, arthritis induced with rat CII; format: in vivo
# Description: Male and female C3H.Q mice were used in two separate experiments. In each experiment, adult mice 8–12 weeks old were injected intradermally at the base of the tail with CII(256-270) (unlinked polypeptides), [(Gly-Pro-Hyp)5-CII(259-274)-(Gly-Pro-Hyp)2]3LAhx (linked polypeptides), or PBS. Specifically, each mouse received 100 μL of PBS or 100 μL of polypeptide (100 μg) emulsified in incomplete Freund's adjuvant.
# After three weeks, the mice were treated with rat CII emulsified in complete Freund's adjuvant. Specifically, each mouse received 100 μL containing 100 μg of rat CII injected intradermally around the base of the tail. […] In addition, five weeks after treating the mice with rat CII, blood samples were collected to determine the antibody response.
# C1 mAb and M2.139 mAb = experiment: Immunoreactivity of conformation dependent monoclonal antibodies on coated microtiter wells; format: binding, mouse; settings: compared with native CII (FIG. 8)
# Description: Microtiter plates (Nunc, Wiesbaden, Germany) were coated overnight with [(Gly-Pro-Hyp)5-CII(358-366Hyp-369)-(Gly-Pro-Hyp)2]3LAhx or [(Gly-Pro-Hyp)5-CII(551-552Hyp-564)-(Gly-Pro-Hyp)2]3LAhx at 4° C. and blocked with 2% BSA in phosphate buffered saline (PBS, pH 7.4) for one hour. The presentation of a native collagen conformation on the plastic surface of the microtiter well was controlled by the immunoreactivity of two mouse monoclonal antibodies (C1 mAb having specificity for the CII(358-369) region and M2.139 mAb having specificity for the CII(551-564) region) that recognize the CII epitopes in a conformation dependent manner as confirmed in FIG. 8. Identical titration curves for the native CII and the synthetic polypeptides indicate that the synthetic polypeptides have a perfect image of the conformational epitope. […] Heat denaturation was achieved by heating the CII polypeptide to greater than 50° C. for two hours prior to the coating of the microtiter wells.
# CD4+ T cells = experiment: IL-2 response of CD4+ T cells upon in vitro stimulation, two-color flow cytometry; format: cell-based, human; settings: 10 μg per mL plus anti-CD28
# [16] = system: CII(256-270)/Aq-specific T cell hybridoma cells; experiment: Antigen presentation, IL-2 production of T cell hybridoma measured by ELISA; format: cell-based, mice
# Description: Antigen-presentation of polypeptides and triple helical polypeptide complexes was studied using A^q-restricted HDQ.9, A^q-restricted HRC.2, A^q-restricted HCQ.4, and DR4-restricted 1259 T cell hybridomas. Briefly, A^q-restricted spleen cells were derived from DBA/1 mice, and DR4-restricted spleen cells were derived from DR4^+/_H-2^−/_mice. T cell hybridoma cells (5×10^4 cells/well) were incubated with polypeptides and polypeptide complexes (20 μg/mL, dilution 1:5) and 5×10^5 spleen cells per well (normal or fixed in 1% paraformaldehyde for 15 min at room temperature) in a volume of 200 μL in 96-well plates for 24 hours. The reactivity of the hybridoma cells toward the polypeptides and triple helical polypeptide complexes, reflected by IL-2 production, was measured by ELISA using europium-labeled streptavidin (WALLAC, Turku).
substance,measurement,setting,value
"rCII: native rat type II collagen, positive control",end point titer value in ng antibody/mL,[1],10 ng antibody/mL
same,end point titer value in ng antibody/mL,[2],10 ng antibody/mL
same,end point titer value in ng antibody/mL,[3],10 ng antibody/mL
same,end point titer value in ng antibody/mL,[4],10 ng antibody/mL
same,end point titer value in ng antibody/mL,[5],100 ng antibody/mL
same,end point titer value in ng antibody/mL,[6],100 ng antibody/mL
same,end point titer value in ng antibody/mL,[7],<10 ng antibody/mL
same,end point titer value in ng antibody/mL,[8],100 ng antibody/mL
same,end point titer value in ng antibody/mL,[9],10 ng antibody/mL
same,end point titer value in ng antibody/mL,[10],10 ng antibody/mL
same,end point titer value in ng antibody/mL,[11],10 ng antibody/mL
same,end point titer value in ng antibody/mL,[12],10 ng antibody/mL
same,end point titer value in ng antibody/mL,[13],10 ng antibody/mL
same,"stimulation of T cells (IL-2 content, CTLL assay, CPM)",[14],did not
whole CII protein: whole type II collagen protein,"stimulation of hybridoma (IL-2, CTLL assay)",HCQ.10 hybridoma,respond
same,"stimulation of hybridoma (IL-2, CTLL assay)",HCQ.4 hybridoma,respond
[(Gly-Pro-Hyp)5-CII(259-274)-(Gly-Pro-Hyp)2]3LAhx [linked polypeptide composition],"stimulation of T cells (IL-2 content, CTLL assay, CPM)",[14],stimulated T cells
same,development of arthritis,"[15]; adult C3H.Q mice, 100 μg intradermally in incomplete Freund's adjuvant (FIG. 6)",abrogated development of arthritis
same,antibody response,[15]; five weeks after treating the mice with rat CII,lower
heat denatured CII: CII polypeptide heated to greater than 50° C. for two hours prior to coating,"binding of C1 mAb / M2.139 mAb, titration curves",C1 mAb and M2.139 mAb,does not bind
tetanus toxoid [TT],IL-2 response of CD4+ T cells (percent of IL-2-producing CD4+ T cells),CD4+ T cells; patient RA 1,0.38%
same,IL-2 response of CD4+ T cells (percent of IL-2-producing CD4+ T cells),CD4+ T cells; patient RA 2,0.61%
same,IL-2 response of CD4+ T cells (percent of IL-2-producing CD4+ T cells),CD4+ T cells; patient RA 3,0.20%
"GEPGIAGFKGEQGPK [CII(256-270), non-glycosylated, unlinked polypeptide]",stimulation of T cell hybridoma cells (IL-2 production),[16]; non-fixed APC,potent stimulators
same,stimulation of T cell hybridoma cells (IL-2 production),[16]; presented by formalin-fixed spleen cells (FIGS. 25–26),stimulated
